Laboratory results published in ChEMBL document CHEMBL1201862, “PubChem BioAssay data set” (2004).
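Results reflect a 48-hour exposure of cells in 96-well plates to compound at five concentrations. Here, GI50 denotes the concentration required for 50% inhibition of growth.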 Active and inactive are the calls of the source. Cut-off read from the data, not from the text of the source: active = GI50 up to about 1.1 µM and inactive = higher.

Tests used:
Experiment in all cases: DTP human tumour cell line panel, 48 h
UO-31 = system: UO-31
CCRF-CEM = system: CCRF-CEM
SK-OV-3 = system: SK-OV-3
HCT-15 = system: HCT-15
RXF 393 = system: RXF 393
HCT-116 = system: HCT-116
OVCAR-8 = system: OVCAR-8
LOX IMVI = system: LOX IMVI
SF-295 = system: SF-295
NCI-H226 = system: NCI-H226
HOP-62 = system: HOP-62
UACC-257 = system: UACC-257
786-0 = system: 786-0
EKVX = system: EKVX
KM-20L2 = system: KM-20L2
OVCAR-5 = system: OVCAR-5
SF-268 = system: SF-268
HT-29 = system: HT-29
NCI/ADR-RES = system: NCI/ADR-RES
MDA-MB-435 = system: MDA-MB-435

SMILES | GI50 (UO-31) | GI50 (CCRF-CEM) | GI50 (SK-OV-3) | GI50 (HCT-15) [µM] | GI50 (RXF 393) | GI50 (HCT-116) | GI50 (OVCAR-8) | GI50 (LOX IMVI) | GI50 (SF-295) | GI50 (NCI-H226) | GI50 (HOP-62) | GI50 (UACC-257) | GI50 (786-0) | GI50 (EKVX) | GI50 (KM-20L2) | GI50 (OVCAR-5) | GI50 (SF-268) | GI50 (HT-29) | GI50 (NCI/ADR-RES) | GI50 (MDA-MB-435)
NC1CC(n2ccc(=O)[nH]c2=O)OC1C(O)CO (stereo not drawn) | > 100 µM (inactive) | > 100 µM (inactive) | > 100 µM (inactive) | > 100 | > 100 µM (inactive) | > 100 µM (inactive) | > 100 µM (inactive) | > 100 µM (inactive) | > 100 µM (inactive) | > 100 µM (inactive) | > 100 µM (inactive) | > 100 µM (inactive) | > 100 µM (inactive) | > 100 µM (inactive) | > 100 µM (inactive) | > 100 µM (inactive) | > 100 µM (inactive) | > 100 µM (inactive) | – | –
Cc1cccc(C)c1NC(=O)C(=O)CC(=O)CO | > 100 µM (inactive) | > 100 µM (inactive) | > 100 µM (inactive) | > 100 | > 100 µM (inactive) | > 100 µM (inactive) | > 100 µM (inactive) | > 100 µM (inactive) | > 100 µM (inactive) | > 100 µM (inactive) | > 100 µM (inactive) | > 100 µM (inactive) | > 100 µM (inactive) | > 100 µM (inactive) | > 100 µM (inactive) | > 100 µM (inactive) | > 100 µM (inactive) | > 100 µM (inactive) | – | –
O=C(O)CN(CC(=O)O)Cc1cc(C#Cc2ccc(C#Cc3ccccc3)cc2)cc(CN(CC(=O)O)CC(=O)O)n1 | 5.68 µM (inactive) | 29.4 µM (inactive) | 56 µM (inactive) | 5.98 | 15.7 µM (inactive) | 8.87 µM (inactive) | 11.5 µM (inactive) | 11.1 µM (inactive) | 27.4 µM (inactive) | 12.2 µM (inactive) | 18.4 µM (inactive) | 40.8 µM (inactive) | 13.1 µM (inactive) | 20.3 µM (inactive) | 17 µM (inactive) | 26.4 µM (inactive) | 12.2 µM (inactive) | 12.9 µM (inactive) | 12.7 µM (inactive) | 22.8 µM (inactive)
CC(=O)OC1=C2CC[C@@H]3C(CC[C@@]4(C)C3CC[C@@H]4OC(C)=O)[C@@]2(C)CC(C#N)C1=O (stereo partly drawn) | 7.69 µM (inactive) | 20.2 µM (inactive) | 18.3 µM (inactive) | 28.9 | 23.4 µM (inactive) | 27.6 µM (inactive) | 30.9 µM (inactive) | 16.8 µM (inactive) | 32.8 µM (inactive) | 34.7 µM (inactive) | 8.67 µM (inactive) | 29.3 µM (inactive) | 10.8 µM (inactive) | 33 µM (inactive) | 27.7 µM (inactive) | 26.4 µM (inactive) | 31 µM (inactive) | 26.5 µM (inactive) | – | –
CN(C)C(=S)/N=c1\ssc(=S)n1Cc1cccs1 | 6.28 µM (inactive) | 6.46 µM (inactive) | 3.46 µM (inactive) | 2.84 | 2.19 µM (inactive) | 3.15 µM (inactive) | 4.99 µM (inactive) | 4.06 µM (inactive) | 1.93 µM (inactive) | 13.7 µM (inactive) | 3.64 µM (inactive) | 6.76 µM (inactive) | 3.83 µM (inactive) | 26.2 µM (inactive) | 1.87 µM (inactive) | > 55.3 µM (inactive) | 5.45 µM (inactive) | 2.62 µM (inactive) | 1.08 µM (active) | 0.658 µM (active)
COc1cc(/C=C\c2ccc(SC)cc2)cc(OC)c1OC | 0.104 µM (active) | 0.0202 µM (active) | 0.0141 µM (active) | 0.0329 | 0.0117 µM (active) | < 0.0158 µM (active) | 0.0231 µM (active) | < 0.0262 µM (active) | 0.0119 µM (active) | 0.979 µM (active) | 0.0175 µM (active) | – | 0.0221 µM (active) | 6.97 µM (inactive) | 0.0182 µM (active) | 1.15 µM (inactive) | 0.0406 µM (active) | < 0.0137 µM (active) | 0.0395 µM (active) | < 0.01 µM (active)
